Measurements published in US6428529B1, “Epidural administration of therapeutic compounds with sustained rate of release” (SkyePharma Inc., priority 1995, dated 2002).

Columns and labels:
rats [1] = test: Antinociception, hot plate test after epidural (or subcutaneous) dose; type: in vivo, Sprague-Dawley rats; conditions: 250 μg epidural
Method: Baseline values of nociception following placement of the epidural catheter were determined by subjecting the animals to standard hot plate (52.5±0.5° C.) testing as described in M. S. Wallace et al., (Anesth. Analg. 79:778-786, 1994). Response latency to nociception (in seconds) was measured from the time when the animals were placed on the hot plate to the time when they either licked their hind paw or jumped. The baseline (pretreatment) response latency value was defined as 0% of the maximum possible analgesia (MPA) in each experimental animal. […] Following epidural administration of the test solutions via the catheter emplanted as described above, the epidural catheter was flushed with 10 μl of 0.9% sodium chloride.
Antinociception was determined in 5 or 6 animals for each dose and each drug. To prevent tissue damage to the footpads, a cutoff time of 60 seconds was used. Accordingly, 100% MPA was defined as antinociception lasting ≧60 seconds.
Efficacy and respiratory depression curves were plotted as a function of time for each dose administered. Hot plate responses were calculated as a percentage of the maximum possible analgesia (%MPA) as described in Wallace et al. (supra): [formula]
All areas under the curves were calculated by the trapezoidal rule to the last data point using the RSTRIP computer program [Micromath, Salt Lake City, Utah]. […]

rats [2] = test: Respiratory depression quantified by pulse oximetry (SpO2) after single epidural bolus; conditions: for respiratory depression (decrease in SpO2): single epidural dose 10 to 2000 μg, sulfate
Method: Respiratory depression was quantified by pulse oximetry. The animals were removed from their cages, placed in polystyrene rat restraints (Plas Labs, Lansing, Mich.) and allowed to acclimate for 5 minutes. […] Pulse oximetry was performed on 5 to 6 animals at each data point, except for the 50 μg dose where 3 animals were used. The pulse oximetry values of percent hemoglobin oxygen saturation (SpO2) were monitored continuously in real time. The maximum value obtaining during the 3-minute recording period was defined as oxygen saturation.

**Q.** CN1CC[C@]23c4c5ccc(O)c4O[C@H]2[C@@H](O)C=C[C@H]3[C@H]1C5.O=S(=O)(O)O [MS, morphine sulfate] was tested. Which “peak effect (% of maximum possible analgesia)” value (rats [1]) did it give?
**A.** ~100 % MPA

**Q.** What about the “time to decrease to 50% MPA” value (rats [1]) of the same compound?
**A.** 0.17 days

**Q.** And the delayed respiratory depression (rats [2]; single epidural dose)?
**A.** no delayed respiratory depression

**Q.** And the “respiratory depression (decrease in SpO2)” value (rats [2]; listed as free morphine)?
**A.** did cause respiratory suppression at high dosages

**Q.** What about the “respiratory depression (decrease in SpO2)” value (rats [2]) of the same compound?
**A.** dose-dependent increase in respiratory depression
